Test results reported in US7851637B2, “Compounds and methods for inhibiting the interaction of BCL proteins with binding partners” (Infinity Pharmaceuticals, Inc., priority 2004, dated 2010).

What was measured:
[1] = molecular target: Bcl-xL (Homo sapiens, UniProt Q07817); test: Bcl-xL binding affinity analysis (fluorescence polarization binding assay); set-up: scale not given here
Excerpt: (§1) Bcl-2 and Bcl-xL binding can be determined using a variety of known methods. One such assay is a sensitive and quantitative in vitro binding assay using fluorescence polarization (FP) described by Wang, J. -L.; Zhang, Z -J.; Choksi, S.; Sjam. S.; Lu, Z.; Croce, C. M.; Alnenri, E. S.; Komgold, R.; Huang, Z. Cell permeable Bcl-2 binding peptides: a chemical approach to apoptosis induction in tumor cells. Cancer Res. 2000, 60, 1498-1502).
(§2) Bcl-2 and Bcl-xL binding affinity analysis data is presented below for various compounds of the invention.

[2] = molecular target: Bcl-2 (Homo sapiens, UniProt P10415); test: Bcl-2 binding affinity analysis (fluorescence polarization binding assay)
Excerpt: as §1, §2

Bcl-xL, sequence (Q07817 whole entry): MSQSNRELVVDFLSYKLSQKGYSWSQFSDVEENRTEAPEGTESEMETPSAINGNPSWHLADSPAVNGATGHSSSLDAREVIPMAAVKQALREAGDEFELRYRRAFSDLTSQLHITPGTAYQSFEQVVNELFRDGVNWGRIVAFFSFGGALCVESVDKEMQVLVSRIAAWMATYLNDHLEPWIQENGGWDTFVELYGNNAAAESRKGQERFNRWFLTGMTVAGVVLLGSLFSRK
Bcl-2, sequence (P10415 whole entry): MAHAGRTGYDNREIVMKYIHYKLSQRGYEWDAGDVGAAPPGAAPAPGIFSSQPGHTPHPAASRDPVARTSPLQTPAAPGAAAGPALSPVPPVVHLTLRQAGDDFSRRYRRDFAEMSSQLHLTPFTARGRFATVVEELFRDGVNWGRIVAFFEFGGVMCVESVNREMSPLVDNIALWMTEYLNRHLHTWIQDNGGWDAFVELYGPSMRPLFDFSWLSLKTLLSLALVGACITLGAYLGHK

Row | Bcl-XL binding affinity Ki [1] | Ki [2] [nM] | Compound
1 | ♯ | 800 to 6000 | C[C@@H](O)[C@H]1[C@@H](CO)ON(Cc2cccc(C#CC(C)(O)c3ccccc3)c2)[C@H]1C(=O)NCCCN(C)c1ccccc1 (stereo partly shown) [Compound 49]
2 | ♯ | 6000 to 50000 | C[C@H](O)[C@@H]1[C@H](CO)ON(Cc2cccc(CN(CCN(C)C)Cc3ccccc3)c2)[C@@H]1C(=O)NCCc1c[nH]c2ccccc12 [Compound 516]
3 | ♯♯ | 6000 to 50000 | C[C@@H](O)[C@@H]1C(C(=O)NCCCN(C)c2ccc(Cl)cc2)N(Cc2cccc(C#CCNC(=O)c3ccccc3)c2)O[C@@H]1CO (stereo partly shown) [Compound 62]
4 | ♯ | < 800 | C[C@@H]1[C@@H](NC(=O)[C@@H]2[C@H]([C@H](C)O)[C@H](CO)ON2Cc2cccc(N3CCN(C(=S)NCc4ccccc4)CC3)c2)C[C@H]2C[C@@H]1C2(C)C [Compound 263]
5 | ♯ | < 800 | CC(C)CC(CN(C)C)N(Cc1cccc(CN2OC(CO)C(C(C)O)C2C(=O)NC2CC3CC(C2C)C3(C)C)c1)Cc1ccc(F)cc1O (stereo not shown) [Compound 329]
6 | ♯ | < 800 | C[C@@H]1C(NC(=O)[C@@H]2[C@H]([C@H](C)O)[C@H](CO)ON2Cc2cccc(-c3ccc(NCCCN(C)C)cc3)c2)C[C@@H]2CC1C2(C)C (stereo partly shown) [Compound 272]
7 | ♯ | < 800 | CC(O)C1C(CO)ON(Cc2cccc(C(=O)NCc3ccccc3)c2)C1C(=O)NC1CC2CC(C1C)C2(C)C (stereo not shown) [Compound 510]
8 | ♯ | 6000 to 50000 | CC(C)C[C@@H](CN(C)C)N(Cc1ccccc1)Cc1cccc(CN2O[C@@H](CO)[C@@H]([C@H](C)O)[C@H]2C(=O)NCCCNC(=O)OC(C)(C)C)c1 [Compound 543]
9 | ♯ | < 800 | CC(O)C1C(CO)ON(Cc2cccc(CN(CCN(C)C)c3ccccc3)c2)C1C(=O)NC1CC2CC(C1C)C2(C)C (stereo not shown) [Compound 476]
10 | ♯ | < 800 | C[C@@H]1[C@@H](NC(=O)[C@@H]2[C@H]([C@H](C)O)[C@H](CO)ON2Cc2cccc(-c3ccc(C(N)=O)cc3)c2)C[C@H]2C[C@@H]1C2(C)C [Compound 134]
11 | ♯ | < 800 | C[C@@H]1[C@@H](NC(=O)[C@@H]2[C@H]([C@H](C)O)[C@H](CO)ON2Cc2cccc(-c3ccc(S(C)(=O)=O)cc3)c2)C[C@H]2C[C@@H]1C2(C)C [Compound 115]
12 | ♯ | < 800 | CNC(=O)c1cccc(-c2cccc(CN3O[C@@H](CO)[C@@H]([C@H](C)O)[C@H]3C(=O)N[C@H]3C[C@H]4C[C@@H]([C@@H]3C)C4(C)C)c2)c1 [Compound 220]
13 | ♯♯ | < 800 | C[C@@H]1[C@@H](NC(=O)[C@@H]2[C@H]([C@H](C)O)[C@H](CO)ON2Cc2cccc(-c3cccc(C(=O)N4CCN(C)CC4)c3)c2)C[C@H]2C[C@@H]1C2(C)C [Compound 129]
14 | ♯ | 800 to 6000 | CC(C)C[C@@H](CN(C)C)N(Cc1ccccc1)Cc1cccc(CN2O[C@@H](CO)[C@@H]([C@H](C)O)[C@H]2C(=O)NCc2ccc(Oc3ccccc3)cc2)c1 [Compound 530]
15 | ♯ | < 800 | C[C@@H]1[C@@H](NC(=O)[C@@H]2[C@H]([C@H](C)O)[C@H](CO)ON2Cc2cccc(-c3cccc(C(=O)NCCO)c3)c2)C[C@H]2C[C@@H]1C2(C)C [Compound 218]
16 | ♯ | < 800 | C[C@@H]1[C@@H](NC(=O)[C@@H]2[C@H]([C@H](C)O)[C@H](COC(=O)NCCN3CCOCC3)ON2Cc2cccc(-c3ccc(C(=O)N(C)C)cc3)c2)C[C@H]2C[C@@H]1C2(C)C [Compound 245]

Row | Bcl-XL binding affinity Ki [1] | Ki [2] [nM] | Compound
17 | ♯ | < 800 | C[C@@H]1[C@@H](NC(=O)[C@@H]2[C@H]([C@H](C)O)[C@H](CO)ON2Cc2cccc(CN(CCN(C)C)CCC(C)(C)C)c2)C[C@H]2C[C@@H]1C2(C)C [Compound 203]
18 | ♯ | 800 to 6000 | CC(O)C1C(CO)ON(Cc2cccc(CN3CCN(C(=O)OCc4ccccc4)CC3)c2)C1C(=O)NC1CC2CC(C1C)C2(C)C (stereo not shown) [Compound 458]
19 | ♯ | < 800 | C[C@@H]1[C@@H](NC(=O)[C@@H]2[C@H]([C@H](C)O)[C@H](CO)ON2Cc2cccc(-c3cccc(C(=O)NCCN4CCN(C)CC4)c3)c2)C[C@H]2C[C@@H]1C2(C)C [Compound 116]
20 | ♯♯ | > 50000 | C[C@@H](O)[C@@H]1C(C(=O)NCCCn2cnc3ccccc32)N(Cc2cccc(C#CCNC(=O)c3ccccc3)c2)O[C@@H]1CO (stereo partly shown) [Compound 55]
21 | ♯ | < 800 | CSc1ccccc1CN(Cc1cccc(CN2OC(CO)C(C(C)O)C2C(=O)NC2CC3CC(C2C)C3(C)C)c1)C(CC(C)C)CN(C)C (stereo not shown) [Compound 330]
22 | ♯ | < 800 | C[C@@H]1[C@@H](NC(=O)[C@@H]2[C@H]([C@H](C)O)[C@H](CO)ON2Cc2cccc(-c3cccc(C(=O)NCCCN(C)C)c3)c2)C[C@H]2C[C@@H]1C2(C)C [Compound 216]
23 | ♯ | > 50000 | C[C@@H]1[C@@H](NC(=O)[C@@H]2C(CO)[C@H]([C@H](C)O)ON2Cc2cccc(C#CC(C)(O)c3ccccc3)c2)C[C@H]2C[C@@H]1C2(C)C (stereo partly shown) [Compound 35]
24 | ♯ | < 800 | CC(C)CC(CN(C)C)N(Cc1cccc(CN2OC(CO)C(C(C)O)C2C(=O)NC2CC3CC(C2C)C3(C)C)c1)CC1CCCC1 (stereo not shown) [Compound 308]
25 | ♯ | < 800 | COC(=N)c1ccc(-c2cccc(CN3O[C@@H](CO)[C@@H]([C@H](C)O)[C@H]3C(=O)NC3C[C@@H]4CC([C@@H]3C)C4(C)C)c2)cc1 (stereo partly shown) [Compound 270]
26 | ♯ | < 800 | CC(=O)NCCNC(=O)c1cccc(-c2cccc(CN3O[C@@H](CO)[C@@H]([C@H](C)O)[C@H]3C(=O)N[C@H]3C[C@H]4C[C@@H]([C@@H]3C)C4(C)C)c2)c1 [Compound 146]
27 | ♯ | < 800 | COc1ccc(O)c(CN(Cc2cccc(CN3OC(CO)C(C(C)O)C3C(=O)NC3CC4CC(C3C)C4(C)C)c2)C(CC(C)C)CN(C)C)c1 (stereo not shown) [Compound 332]
28 | ♯ | 6000 to 50000 | C[C@H](O)[C@@H]1[C@H](CO)ON(Cc2cccc(CN(CCN(C)C)Cc3ccccc3)c2)[C@@H]1C(=O)NCCCN(C)C [Compound 517]
29 | ♯♯ | < 800 | C[C@@H]1[C@@H](NC(=O)[C@@H]2[C@H]([C@H](C)O)[C@H](CO)ON2Cc2cccc(-c3cccc(C(=O)NCC4CC4)c3)c2)C[C@H]2C[C@@H]1C2(C)C [Compound 145]
30 | ♯ | < 800 | CCOc1cccc(CN(Cc2cccc(CN3O[C@@H](CO)C([C@H](C)O)[C@H]3C(=O)N[C@H]3C[C@H]4C[C@@H]([C@@H]3C)C4(C)C)c2)[C@@H](CC(C)C)CN(C)C)c1O (stereo partly shown) [Compound 334]
31 | ♯ | < 800 | CC(C)/N=C(/NC(C)C)N1CCN(c2cccc(CN3O[C@@H](CO)[C@@H]([C@H](C)O)[C@H]3C(=O)NC3C[C@H]4C[C@@H]([C@@H]3C)C4(C)C)c2)CC1 (stereo partly shown) [Compound 296]
32 | ♯ | 800 to 6000 | C[C@@H]1[C@@H](NC(=O)[C@@H]2[C@H]([C@H](C)O)[C@H](CO)ON2CCCCN(CCN(C)C)Cc2ccccc2Cl)C[C@H]2C[C@@H]1C2(C)C [Compound 549]
